Data: ChEMBL document CHEMBL3244307, “Replacement of the disulfide bond in oxytocin by an amide group. Synthesis and some biological properties of (cyclo-(1-L-aspartic acid,6-L-alpha,beta-diaminopropionic acid))oxytocin” (1978)
Active and inactive are the calls of the source. No cut-off for these calls is given here. Where a SMILES comes first, the peptide text is derived from it. Bridges are numbered along the chain shown (N, C = ends). [ ]: non-standard residue; d: D form. ξ: configuration not given here. ξDap = NCC(N)C(=O)O; βAla = NCCC(=O)O

Columns and labels:
[1] = system: Gallus gallus; assay: Effect on vasodepressor activity in conscious chicken; type: functional
[2] = species: Rattus norvegicus; assay: Uterotonic activity in rat; type: functional
[3] = species: Rattus norvegicus; assay: Antidiuretic activity in rat; type: functional, Urine
[4] = species: Rattus norvegicus; assay: Effect on pressor response in rat; type: functional, organism-based

SMILES | Activity [1] [U/mg] | Activity [2] [U/mg] | Activity [3] [U/mg] | Activity [4]
CC[C@H](C)[C@@H]1NC(=O)[C@H](Cc2ccc(O)cc2)NC(=O)[C@@H](N)CSSC[C@@H](C(=O)N2CCC[C@H]2C(=O)N[C@@H](CC(C)C)C(=O)NCC(N)=O)NC(=O)[C@H](CC(N)=O)NC(=O)[C@H](CCC(N)=O)NC1=O [OXYTOCIN] | 500 | 540 | 3 | –
CC[C@H](C)[C@@H]1NC(=O)[C@H](Cc2ccc(O)cc2)NC(=O)[C@@H](N)CC(=O)NCC(C(=O)N2CCC[C@H]2C(=O)N[C@@H](CC(C)C)C(=O)NCC(N)=O)NC(=O)[C@H](CC(N)=O)NC(=O)[C@H](CCC(N)=O)NC1=O (stereo partly drawn) (H-DYIQN[ξDap]PLG-NH2; lactam 1-6) | 6.6 | 16 | 5.6 | Active
CC[C@H](C)[C@@H]1NC(=O)[C@H](Cc2ccc(O)cc2)NC(=O)CCNC(=O)C[C@@H](C(=O)N2CCC[C@H]2C(=O)N[C@@H](CC(C)C)C(=O)NCC(N)=O)NC(=O)[C@H](CC(N)=O)NC(=O)[C@H](CCC(N)=O)NC1=O ([βAla]YIQNDPLG-NH2; lactam N-6) | – | 1.13 | – | –
